Reference: patent US20040249122A1, “Cationic, amphipathic beta-sheet peptides and uses thereof” (priority 2003, published 2004)
Values after ≈ are worked out from the molar mass of the structure shown. Where two headings read alike, the source gives them in different places. Where a SMILES comes first, the peptide text is derived from it. Where no end group is shown, it is not given here. The star is where a group is joined. Octanoyl = CCCCCCCC(=O)*

Legend:
[1] = system: E. coli, S. aureus, and P. aeruginosa; assay type: cell-based
Method: Antimicrobial and Hemolytic Assays. Antimicrobial susceptibility testing against Staphylococcus aureus (ATCC 29213), Escherichia coli (ATCC 25922), and Pseudomonas aeruginosa (ATCC 27853) was performed using a modification of the National Committee for Clinical Laboratory Standards microdilution broth assay (22). Mueller-Hinton broth (BBL) was used for diluting the peptide stock solution and for diluting the bacterial inoculum. The inoculum was prepared from mid-logarithmic phase cultures. Microtiter plate wells received aliquots-of 100 μL each of the inoculum and peptide dilution. The final concentration of peptide solution ranged-from 0.25 to 256 μg/mL in two-fold dilutions. The final concentration of bacteria in the wells was 5×10^5 CFU/mL. Peptides were tested in duplicate. In addition to the test peptide, three standard peptides and a non-treated growth control were included to validate the assay. The microtiter plates were incubated overnight at 37° C. and the absorbance was measured at 600 nm. […] Hemolysis at peptide concentrations of 500 μg/mL was determined using a 5% suspension of freshly drawn human erythrocytes, which had been washed twice in phosphate buffered saline. After incubation at 37° C. for 30 min, the suspension was centrifuged at 10,000×g for 10 min and the absorbance at 400 nm was measured. Complete hemolysis was determined by adding 0.2% Triton X-100 in place of the peptide.

[2] = system: Pseudomonas aeruginosa (ATCC 27853); assay type: cell-based
Method: (§1) Antimicrobial and Hemolytic Assays. Antimicrobial susceptibility testing against Staphylococcus aureus (ATCC 29213), Escherichia coli (ATCC 25922), and Pseudomonas aeruginosa (ATCC 27853) was performed using a modification of the National Committee for Clinical Laboratory Standards microdilution broth assay (22). Mueller-Hinton broth (BBL) was used for diluting the peptide stock solution and for diluting the bacterial inoculum. The inoculum was prepared from mid-logarithmic phase cultures. […] The final concentration of peptide solution ranged-from 0.25 to 256 μg/mL in two-fold dilutions. The final concentration of bacteria in the wells was 5×10^5 CFU/mL. Peptides were tested in duplicate. In addition to the test peptide, three standard peptides and a non-treated growth control were included to validate the assay. The microtiter plates were incubated overnight at 37° C. and the absorbance was measured at 600 nm. […] After incubation at 37° C. for 30 min, the suspension was centrifuged at 10,000×g for 10 min and the absorbance at 400 nm was measured.

[3] = system: Staphylococcus aureus (ATCC 29213); assay type: cell-based
Method: as §1

[4] = system: Escherichia coli (ATCC 25922); assay type: cell-based
Method: as §1

[5] = Peptide-induced leakage from calcein-loaded LUV
Method: Peptide-Induced Leakage from Calcein-Loaded LUV. The ability of the peptides to release calcein (MW 623) from LUV of varying lipid composition was compared. LUV were prepared as above, except that-the buffer consisted of 50 mM HEPES, 100 mM NaCl, 0.3 mM EDTA, 80 mM calcein, pH 7.4. Calcein-loaded vesicles were separated from free calcein by size-exclusion chromatography using a Sephadex G-50 column and calcein-free buffer. Calcein leakage was monitored using a Perkin-Elmer LS-500 luminescence spectrometer by measuring the time-dependent increase in fluorescence of calcein (excitation=490 nm, emission=520 nm). LUV containing 8 nmoles of lipid were added to 1.5 mL of buffer in a stirred cuvet at 25° C. An aliquot of peptide was added to achieve the desired lipid-to-peptide ratio (256 to 8). Complete leakage was determined by the addition of 20 μL of 10% Triton X-100. Each value represents at least nine different measurements using at least three different LUV preparations.

Compound	antimicrobial activity (in words) [1]	MIC Pseud. aerug ([2]; ATCC 27853)	MIC Staph. aureus ([3]; ATCC 29213)	MIC E. coli ([4]; ATCC 25922)	also measured
CC(C)C[C@H](NC(=O)CNC(=O)[C@H](CCCCN)NC(=O)[C@H](C)NC(=O)[C@H](CC(C)C)NC(=O)[C@H](CCCCN)NC(=O)[C@H](C)NC(=O)[C@H](CC(C)C)NC(=O)CNC(=O)[C@H](CCCCN)NC(=O)[C@H](C)NC(=O)[C@H](Cc1c[nH]c2ccccc12)NC(=O)[C@H](CCCCN)NC(=O)[C@H](C)NC(=O)[C@H](CC(C)C)NC(=O)CNC(=O)[C@H](CCCCN)NC(=O)[C@H](C)NC(=O)[C@H](CC(C)C)NC(=O)[C@@H](N)CCCCN)C(=O)N[C@@H](C)C(N)=O [1,4-Hept, KLAKGLAKWAKGLAKLAKGLA-NH2] (H-KLAKGLAKWAKGLAKLAKGLA-NH2; N-terminus assumed)	relatively low MIC values	32 µg/mL (≈ 15 µM)	8 to 16 µg/mL	8 µg/mL (≈ 3.75 µM)	
CC[C@H](C)[C@H](NC(=O)[C@H](CCCCN)NC(=O)[C@H](C)NC(=O)CNC(=O)[C@@H](NC(=O)[C@H](CCCCN)NC(=O)[C@@H](NC(=O)[C@H](CCCCN)NC(=O)[C@H](C)NC(=O)CNC(=O)[C@H](Cc1c[nH]c2ccccc12)NC(=O)[C@H](CCCCN)NC(=O)[C@@H](NC(=O)[C@H](CCCCN)NC(=O)[C@H](C)NC(=O)CNC(=O)[C@@H](NC(=O)[C@@H](N)CCCCN)[C@@H](C)CC)[C@@H](C)CC)[C@@H](C)CC)[C@@H](C)CC)C(N)=O [1,5-Hex, K I G A K I K W G A K I K I G A K I-NH2] (H-KIGAKIKWGAKIKIGAKI-NH2; N-terminus assumed)	appreciable antimicrobial activity				
CC[C@H](C)[C@H](NC(=O)[C@H](C)NC(=O)CNC(=O)[C@@H](NC(=O)[C@H](CCCCN)NC(=O)[C@H](CCCCN)NC(=O)[C@@H](NC(=O)[C@H](C)NC(=O)CNC(=O)[C@H](Cc1c[nH]c2ccccc12)NC(=O)[C@H](CCCCN)NC(=O)[C@H](CCCCN)NC(=O)[C@@H](NC(=O)[C@H](C)NC(=O)CNC(=O)[C@@H](NC(=O)[C@@H](N)CCCCN)[C@@H](C)CC)[C@@H](C)CC)[C@@H](C)CC)[C@@H](C)CC)C(=O)N[C@@H](CCCCN)C(N)=O [1,6-Hex, K I G A I K K W G A I K K I G A I K-NH2] (H-KIGAIKKWGAIKKIGAIK-NH2; N-terminus assumed)		>256 µg/mL	>256 µg/mL	>256 µg/mL	
CC(C)C[C@H](NC(=O)CNC(=O)[C@H](C)NC(=O)[C@H](CC(C)C)NC(=O)[C@H](CCCCN)NC(=O)[C@H](CCCCN)NC(=O)[C@H](C)NC(=O)[C@H](CC(C)C)NC(=O)CNC(=O)[C@H](C)NC(=O)[C@H](Cc1c[nH]c2ccccc12)NC(=O)[C@H](CCCCN)NC(=O)[C@H](CCCCN)NC(=O)[C@H](C)NC(=O)[C@H](CC(C)C)NC(=O)CNC(=O)[C@H](C)NC(=O)[C@H](CC(C)C)NC(=O)[C@H](CCCCN)NC(=O)[C@@H](N)CCCCN)C(=O)N[C@@H](C)C(N)=O [1,2-Hept, KKLAGLAKKWAGLAKKLAGLA-NH2] (H-KKLAGLAKKWAGLAKKLAGLA-NH2; N-terminus assumed)	relatively low MIC values	16 µg/mL (≈ 7.49 µM)	16 µg/mL (≈ 7.49 µM)	8 µg/mL (≈ 3.75 µM)	
CC(C)C[C@H](NC(=O)CNC(=O)[C@H](C)NC(=O)[C@H](CC(C)C)NC(=O)[C@H](CCCCN)NC(=O)[C@H](CCCCN)NC(=O)[C@H](C)NC(=O)[C@H](CC(C)C)NC(=O)CNC(=O)[C@H](C)NC(=O)[C@H](Cc1c[nH]c2ccccc12)NC(=O)[C@H](CCCCN)NC(=O)[C@H](CCCCN)NC(=O)[C@H](C)NC(=O)[C@H](CC(C)C)NC(=O)CNC(=O)[C@H](C)NC(=O)[C@H](CC(C)C)NC(=O)[C@@H](N)CCCCN)C(=O)N[C@@H](C)C(=O)N[C@@H](CCCCN)C(N)=O [1,7-Hept, KLAGLAKKWAGLAKKLAGLAK-NH2] (H-KLAGLAKKWAGLAKKLAGLAK-NH2; N-terminus assumed)	relatively low MIC values	16 µg/mL (≈ 7.49 µM)	16 µg/mL (≈ 7.49 µM)	8 µg/mL (≈ 3.75 µM)	
CC[C@H](C)[C@H](NC(=O)[C@H](C)NC(=O)[C@H](CCCCN)NC(=O)CNC(=O)[C@@H](NC(=O)[C@H](CCCCN)NC(=O)[C@@H](NC(=O)[C@H](C)NC(=O)[C@H](CCCCN)NC(=O)CNC(=O)[C@H](Cc1c[nH]c2ccccc12)NC(=O)[C@H](CCCCN)NC(=O)[C@@H](NC(=O)[C@H](C)NC(=O)[C@H](CCCCN)NC(=O)CNC(=O)[C@@H](NC(=O)[C@@H](N)CCCCN)[C@@H](C)CC)[C@@H](C)CC)[C@@H](C)CC)[C@@H](C)CC)C(N)=O [1,4-Hex, K I G K A I K W G K A I K I G K A I-NH2] (H-KIGKAIKWGKAIKIGKAI-NH2; N-terminus assumed)		64 µg/mL (≈ 33.3 µM)	>256 µg/mL	32 µg/mL (≈ 16.6 µM)	
CC[C@H](C)[C@H](NC(=O)[C@H](C)NC(=O)CNC(=O)[C@@H](NC(=O)[C@H](CCCCN)NC(=O)[C@H](CCCCN)NC(=O)[C@@H](NC(=O)[C@H](C)NC(=O)CNC(=O)[C@H](Cc1c[nH]c2ccccc12)NC(=O)[C@H](CCCCN)NC(=O)[C@H](CCCCN)NC(=O)[C@@H](NC(=O)[C@H](C)NC(=O)CNC(=O)[C@@H](NC(=O)[C@H](CCCCN)NC(=O)[C@@H](N)CCCCN)[C@@H](C)CC)[C@@H](C)CC)[C@@H](C)CC)[C@@H](C)CC)C(N)=O [1,2-Hex, K K I G A I K K W G A J K K I G A I-NH2] (H-KKIGAIKKWGAIKKIGAI-NH2; N-terminus assumed)		128 µg/mL (≈ 66.6 µM)	>256 µg/mL	128 µg/mL (≈ 66.6 µM)	
CCCCCCCC(=O)N[C@@H](CCCCN)C(=O)N[C@H](C(=O)NCC(=O)N[C@@H](C)C(=O)N[C@@H](CCCCN)C(=O)N[C@H](C(=O)N[C@@H](CCCCN)C(=O)N[C@H](C(=O)NCC(=O)N[C@@H](C)C(=O)N[C@@H](CCCCN)C(=O)N[C@H](C(=O)N[C@@H](CCCCN)C(=O)N[C@@H](Cc1c[nH]c2ccccc12)C(=O)NCC(=O)N[C@@H](C)C(=O)N[C@@H](CCCCN)C(=O)N[C@H](C(N)=O)[C@@H](C)CC)[C@@H](C)CC)[C@@H](C)CC)[C@@H](C)CC)[C@@H](C)CC [Oct-KIGAKI-18B, Oct- K I G A K I K I G A K I K W G A K I-NH2] (Octanoyl-KIGAKIKIGAKIKWGAKI-NH2)					MIC Pseud. aerug ([2]; Table 103): 8 µg/mL (≈ 3.9 µM); MIC Staph. aureus ([3]; Table 103): 8 µg/mL (≈ 3.9 µM); MIC E. coli ([4]; Table 103): 8 µg/mL (≈ 3.9 µM)
K I G A K S K H G A K I K I G A K I-NH2 (KIGAKSKHGAKIKIGAKI-NH2) [SH-KIGAKI]					calcein leakage from LUV (in words) ([5]; POPC (PC) LUV): low lytic activity; calcein leakage from LUV (in words) ([5]; POPC/POPG LUV, all ratios (1:1 to 4:1)): no ability to induce leakage; calcein leakage from LUV (in words) ([5]; any LUVs containing PE/PG): no ability to induce leakage
CCCCCCCC(=O)N[C@@H](CCCCN)C(=O)N[C@H](C(=O)NCC(=O)N[C@@H](C)C(=O)N[C@@H](CCCCN)C(=O)N[C@H](C(=O)N[C@@H](CCCCN)C(=O)N[C@@H](Cc1c[nH]c2ccccc12)C(=O)NCC(=O)N[C@@H](C)C(=O)N[C@@H](CCCCN)C(=O)N[C@H](C(=O)N[C@@H](CCCCN)C(=O)N[C@H](C(=O)NCC(=O)N[C@@H](C)C(=O)N[C@@H](CCCCN)C(=O)N[C@H](C(N)=O)[C@@H](C)CC)[C@@H](C)CC)[C@@H](C)CC)[C@@H](C)CC)[C@@H](C)CC [Oct-KIGAKI-18A, Oct- K I G A K I K W G A K I K I G A K I-NH2] (Octanoyl-KIGAKIKWGAKIKIGAKI-NH2)					MIC Pseud. aerug ([2]; Table 103): 8 µg/mL (≈ 3.9 µM); MIC Staph. aureus ([3]; Table 103): 4 µg/mL (≈ 1.95 µM); MIC E. coli ([4]; Table 103): 8 µg/mL (≈ 3.9 µM)
